Results: patent publication US20100190737A1, “COMPOSITIONS COMPRISING INOSINE AND OROTIC ACID AND METHODS OF USE THEREOF FOR THE TREATMENT OF CERTAIN HEART CONDITIONS AND ENHANCEMENT OF WORK CAPACITY” (NUTRITIONAL RESEARCH GROUP LLC, priority 2009, published 2010)

Experiments:
patients with arrhythmia = assay: Case studies: patients with arrhythmia given inosine/magnesium orotate capsules; format: in vivo, human; conditions: Example 5
Source text: Another cardiac condition prevalent in the population is arrhythmia. Cardiac arrhythmia is characterized by an abnormal rate of cardiac muscle contractions. The rate of contractions may be too slow, too fast, too frequent or too infrequent. The present pharmaceutical composition stabilizes the cardiac arrhythmia.

[1] = system: chinchilla rabbits with experimental myocardial infarction; assay: Experimentally-induced myocardial infarction (coronary artery ligation); format: in vivo, rabbit; conditions: for NN of Animals With Necrosis: of 10 animals; for EKG Q: oral 100 mg/kg BW of each ingredient daily
Procedure: Histological, light microscopic methods of investigation have been employed to study the zone of necrosis, perinecrotic zone and myocardium regions spaced from the time of infarction by 7 and 14 days after the infarction event. Dynamic electrocardiographic observation over the animals was carried out during the first day and during the following 7 and 14 days. The study of the total cross-sectional patterns of a rabbit's heart has made it possible to precisely define these zones. The first Group of 10 animals was sham-operated without treatment (Group I, positive control-Intact, no MI). […] Group II animals were without treatment (negative control-MI Control).

[2] = system: rats with experimental aortic stenosis; assay: Short term (7 day) experimental aortic stenosis: heart weight and swimming to exhaustion; format: in vivo, rat; conditions: EAS rats; for Heart Weight: intragastric daily
Source text: There are two 7 day experiments in this portion of the study; a preliminary 7 day study with 54 rats in 9 groups (6 rats per group) to determine optimal dosage levels for the separate inosine or potassium orotate ingredients for farther experimentation by determination of maximal heart weight development and work capacity; and then a study with 30 rats in 5 groups (6 rats per group) using the optimal single ingredient dosage levels for comparison with the results of a composition of the ingredients. All compounds were administered intragastrically through a tube after being dissolved in approximately 1 ml of water.
A single control group received a sham operation, while the rest of the groups received experimental aortic stenosis (“EAS”) operations (all according to Beznak in Journal Physiol. (Lond.) 120.23P, 1953 as modified by Kogan, Bull eksper. Biol. Med., 26:112, 1961 and then the other 13 groups received various treatments and dosages of inosine or potassium orotate or a composition of the two ingredients after the optimal inosine and potassium orotate dosages were determined. All animals were tested at the beginning and end of the experiment for swimming to exhaustion times with a 7.5% body weight load attached to their tails.
Sach compound, i.e., inosine and potassium orotate, was administered at different doses and the level of heart hypertrophy and work capacity was observed. Each of the compounds was evaluated in four doses: 12.5 mg/kg, 25 mg/kg, 50 mg/kg and 100 mg/kg body weight. Six animals were used in each group for inosine [4 groups] and potassium orotate [4 groups] plus the one control group (sham operated, no treatment); 54 animals in total.
Thirty white rats were divided into 5 groups (6 animals in each group). Group I was a sham-operated control group, Group II animals with experimental aortic stenosis but were untreated, Groups III, IV & V animals, all with experimental aortic stenosis received by an intragastric tube each day, either inosine (25 mg/kg body weight), potassium orotate (50 mg/kg body weight) or an composition of inosine (25 mg/kg body weight) plus potassium orotate (50 mg/kg body weight), respectively.

mice = assay: Short term (14 day) work capacity: swimming lengths within 30 minutes, hepatic glycogen; format: in vivo, mouse; conditions: for Swimming lengths / increase in number of swimming lengths: 14 days
Procedure: Seventy two animals (mice) were divided into 12 groups of 6 animals each; a control group (untreated) and 11 test groups that were intragastrically administered varying daily doses of inosine, potassium orotate or an inosine plus potassium orotate combination (the “combination”) for 14 days. […] The swimming exercise consisted of forcing the animals to perform repetitive swimming in a three meter long channel until exhaustion. The level of exhaustion was determined by a count of the number of swimming lengths which each animal did within 30 minutes. A lower number of swimming lengths indicated a greater level of exhaustion, whereas a higher number of lengths indicated a greater work capacity.

white rats = assay: Long-term (6 months) work capacity in trained and non-trained rats; conditions: untrained rats
Procedure: Seventy two white rats were randomly placed in 6 groups (12 animals each), to test the effectiveness of training and to determine morphological and physiological alterations in the rats. In Group I, control rats were nontrained and not administered either of inosine or the combination of inosine and orotate; Group II comprised non-trained rats to which were administered inosine (25 mg/kg/body weight; Group III comprised non-trained rats to which were administered the combination of inosine plus potassium orotate (25 mg/kg/body weight of inosine and 50 mg/kg/body weight potassium orotate); Group IV comprised trained rats that were not administered either of inosine or the combination of inosine and orotate; Group V comprised trained rats to which was administered inosine alone (25 mg/kg/body weight), and Group VI comprised trained rats to which was administered the combination of inosine plus potassium orotate (25 mg/kg/body weight of inosine and 50 mg/kg/body weight potassium orotate).
Training of rats consisted of their forced swimming in a water bath (28-30° C.) with a weight fixed on their backs (7.5% of the rat body weight). During the first two weeks the animals swam daily for 5-10 minutes, after which we determined the individual maximum time of swimming to exhaustion (i.e. maximum work capacity) for each animal and then calculated the mean maximum time for each group. After 2 weeks these initial maximum work capacity values were used for planning and performing additional swimming training.
The functional condition of the rats at rest was estimated from their work capacity (maximum swimming time), body weight increase, EKG tests, oxygen consumption and sodium and potassium levels in the myocardium in a relatively quiet state. The morphological state of the heart and other viscera were rated from their absolute and relative weights, and also from histological and histochemical examinations of the myocardium. Also determined were the amounts of glycogen in the m. quadriceps (quadriceps group of muscles) of the hip, the myocardium and the liver. All the quantitative results obtained were processed with conventional statistical procedures.

[3] = seventh day, inosine 25 mg/kg BW, potassium orotate 50 mg/kg BW, alone or together
[4] = seventh day, inosine 25 mg/kg BW, potassium orotate 50 mg/kg BW, alone or together, listed as orotate

For `COCCc1ccc(OCC(O)CNC(C)C)cc1` (centres unmarked) [Toprol], the “arrhythmia episodes per week” value (patients with arrhythmia; 50 mg Toprol daily, one month, from 3-4 times weekly) was 2-3 per week.
With `O=C(O)c1cc(=O)[nH]c(=O)[nH]1` [orotic acid] the “Thickness of Left Ventricular Wall” value ([1]; Day 7) was 5.0 ± 0.61 mm, the “EKG QRS” value ([1]; Day 7, 100 mg/kg BW each) was 0.07 ± 0.003 s and the “EKG R” value ([1]; Day 7, 100 mg/kg BW each) was 4.2 ± 0.030 mm. For the same molecule, the “NN of Animals With Necrosis” value ([1]; Day 7, MI control 10) was 5, the “EKG Q” value ([1]; Day 7) was 1.0 ± 0.02 mm and the “EKG QRS” value ([1]; Day 14) was 0.06 ± 0.016 s. For the same molecule, the “EKG R” value ([1]; Day 14) was 4.4 ± 0.27 mm, the “Thickness of Left Ventricular Wall” value ([1]; Day 14) was 5.4 ± 0.23 mm and the “NN of Animals With Necrosis” value ([1]; Day 14, MI control 3) was 0. The “EKG Q” value ([1]; Day 14) was 0.6 ± 0.05 mm, the reduction in necroses ([1]; administered individually, 100 mg/kg) was 50% and the “hemorrhages or infiltration in the infarction zone” value ([1]; by the fourteenth day) was “virtually had no hemorrhages or infiltration in the infarction zone”. The “restoration of EKG readings” value ([1]; by the seventh experimental day) was “nearly a complete restoration of the voltage of EKG waves and of the systolic index”.
Work on `O=C([O-])c1cc(=O)[nH]c(=O)[nH]1.[K+]` [potassium orotate] yielded a swimming time ([2]; day 7, 12.5 mg/kg intragastrically, EAS control 15±5.0, sham 62±5.0) of 18 ± 4.0 min, a swimming time ([2]; day 7, 25 mg/kg) of 22 ± 3.0 min and a swimming time ([2]; day 7, 50 mg/kg) of 32 ± 3.0 min. For the same molecule, the swimming time ([2]; day 7, 100 mg/kg) was 30 ± 3.0 min, the relative heart weight ([2]; seventh day, 12.5 mg/kg, EAS control 400±8.9, sham 300±5.0) was 420±6.0 mg/100 g. body weight and the relative heart weight ([2]; seventh day, 25 mg/kg) was 440±11 mg/100 g. body weight. For the same molecule, the relative heart weight ([2]; seventh day, 50 mg/kg) was 460±16 mg/100 g. body weight, the relative heart weight ([2]; seventh day, 100 mg/kg) was 465±15 mg/100 g. body weight and the “swimming time” value [2, 3] was 33 ± 4 min. For the same molecule, the “Heart Weight” value [2, 3] was 460±16 mg/100 gr BW, the “Heart Weight” value [2, 4] was 460 ± 16 mg/100 gr BW and the “swimming time” value [2, 4] was 33 ± 4.0 min. For the same molecule, the Swimming lengths (mice; 25 mg/kg BW) was 40.2, the “increase in number of swimming lengths” value (mice; 25 mg/kg/body weight daily) was 60.7% and the Swimming lengths (mice; 50 mg/kg BW) was 45.6. The “increase in number of swimming lengths” value (mice; 50 mg/kg/body weight daily) was 82.2%, the Swimming lengths (mice; 100 mg/kg BW) was 56.3 and the “increase in number of swimming lengths” value (mice; 100 mg/kg/body weight daily) was 125%. The Swimming lengths (mice; 200 mg/kg BW) was 44.6, the “increase in number of swimming lengths” value (mice; 200 mg/kg/body weight daily) was 78.3% and the “mean decrease of hepatic glycogen stores during the swimming exercise” value (mice; controls 67.5% from baseline) was 18.5%. The “increased hepatic glycogen content” value (mice; inosine 25 mg/kg, potassium orotate 50 mg/kg, or combination) was 18%, the “Heart weight after 6 mo.” value (white rats) was 304 ± 9.2 mg/100gk BW and the “Oxygen consumption End of experiment” value (white rats) was 27.0 ± 0.60 ml/min/kg BW. For the same molecule, the “Swimming time Before” value (white rats) was 72 ± 4.0 min, the “Glycogen in m. quadriceps, After work” value (white rats; end of experiments) was 488 ± 15.0 and the “Glycogen in m. quadriceps, In rest” value (white rats; end of experiments) was 860 ± 16.0. The “Swimming time After 6 mo.” value (white rats; INO 25 mg/kg, PO 50 mg/kg) was 80 ± 4.2 min.
In the case of `CCC(=O)O[C@@H](O[P@](=O)(CCCCc1ccccc1)CC(=O)N1C[C@H](C2CCCCC2)C[C@H]1C(=O)[O-])C(C)C.[Na+]` [Monopril], the “blood pressure (systolic over diastolic)” value (patients with arrhythmia; 10 mg Monopril with 50 mg Toprol daily, one month, from 165/105) is reported as 150/95 and the “blood pressure (systolic over diastolic)” value (patients with arrhythmia; Monopril increased to 20 mg) is reported as 145/90.
